In US8557816B2, “Aurora kinase modulators and method of use” (Amgen Inc., priority 2007, dated 2013):

Tests used:
AuroraA-TPX2 = biological target: T1, AuroraA-TPX2 (Homo sapiens, UniProt O14965); assay: AuroraA-TPX2 Homogeneous Time Resolved Fluorescent (HTRF) kinase assay; assay type: biochemical; details: average; read-out: AurA_IC50_IP (uM Avg)
T1 construct: 20 μL of AuroraA-TPX2 KD GST for a final volume of about 41 μL; GST
T1 sequence (O14965 133-383 limits assumed): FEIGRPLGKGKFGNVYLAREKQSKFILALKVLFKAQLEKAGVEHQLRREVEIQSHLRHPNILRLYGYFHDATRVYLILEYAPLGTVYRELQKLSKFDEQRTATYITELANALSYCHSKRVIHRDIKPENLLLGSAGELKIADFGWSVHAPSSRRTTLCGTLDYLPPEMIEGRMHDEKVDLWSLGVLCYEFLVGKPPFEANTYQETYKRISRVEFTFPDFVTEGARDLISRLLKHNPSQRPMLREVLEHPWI
T1 sequence (Q9ULW0 1-43 partner limits assumed): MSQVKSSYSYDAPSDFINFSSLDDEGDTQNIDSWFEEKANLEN
Procedure, shortened: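 HTRF read-out (Eu 615 nm to APC 655 nm) of phosphorylated biotin-PLK, detected with 0.02 nM europium anti-phosphoPLK antibody and 0.0005 mg/mL SA-APC after overnight equilibration.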

AuroraB = biological target: T2, AuroraB (Homo sapiens, UniProt Q96GD4); assay: AuroraB Homogeneous Time Resolved Fluorescent (HTRF) kinase assay; assay type: biochemical; details: average; read-out: AurB_IC50_IP (uM Avg)
T2 construct: 20 μL of AuroraB FL H is for a final volume of 41 μL; His
Procedure, shortened: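 Read-out is time-resolved FRET between europium anti-phospho-H3 antibody and streptavidin-APC, added in EDTA buffer to stop the reaction and equilibrated about 60 min (ex 320, em 615 and 655 nm). Preceding reaction: ~90 min, full-length enzyme, ATP, 0.1 μM biotin-Histone H3 substrate, Mg/Mn HEPES buffer pH 7.5.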

T2 sequence (Q96GD4 whole entry): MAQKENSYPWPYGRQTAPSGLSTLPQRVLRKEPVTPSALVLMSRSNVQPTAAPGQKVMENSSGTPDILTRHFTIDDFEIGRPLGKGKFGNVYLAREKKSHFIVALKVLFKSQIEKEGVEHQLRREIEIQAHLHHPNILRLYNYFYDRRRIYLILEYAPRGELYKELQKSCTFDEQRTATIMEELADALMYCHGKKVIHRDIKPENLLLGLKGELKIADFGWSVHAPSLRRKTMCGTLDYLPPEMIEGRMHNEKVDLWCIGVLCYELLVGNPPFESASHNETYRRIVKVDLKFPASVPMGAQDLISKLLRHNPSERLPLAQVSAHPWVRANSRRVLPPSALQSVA

Row | SMILES | IC50 (AuroraA-TPX2) | IC50 (AuroraB)
1 | COc1cnc2c(Sc3ccc(Nc4nnc(N5CCC(N6CCCC6)CC5)c5ccccc45)cc3)ccnc2c1 [compound 538] | 3.43 µM | 0.045 µM
2 | COc1cnc2c(Oc3ccc(Nc4nnc(-c5cc(F)cc(F)c5)c5ccccc45)cc3)ccnc2c1 [compound 539] | 0.133 µM | 0.02 µM
3 | COc1cnc2c(Sc3ccc(Nc4nnc(C5CC5)c5ccccc45)cc3)ccnc2c1 [compound 541] | 0.393 µM | 0.025 µM
4 | COc1cnc2c(Oc3ccc(Nc4nncc5ccccc45)cc3)ccnc2c1 [compound 542, N-(4-((7-methoxy-1,5-naphthyridin-4-yl)oxy)phenyl)-1-phthalazinamine] | 0.319 µM | 0.041 µM
5 | COc1cnc2c(Oc3ccc(Nc4nnc(C5CC5)c5ccccc45)cc3)ccnc2c1 [compound 543] | 0.581 µM | 0.044 µM
6 | COc1cnc2c(Oc3ccc(Nc4nnc(-c5ccc(C)c(N)c5)c5cc(F)c(F)cc45)cc3)ccnc2c1 [compound 545] | 0.085 µM | 0.02 µM
7 | COc1cnc2c(Oc3ccc(Nc4nnc(-c5ccccc5Cl)c5ccccc45)cc3)ccnc2c1 [compound 546] | 0.723 µM | 0.135 µM
8 | COc1cnc2c(Sc3ccc(Nc4nncc5ccccc45)cc3)ccnc2c1 [compound 547, N-(4-((7-methoxy-1,5-naphthyridin-4-yl)sulfanyl)phenyl)-1-phthalazinamine] | 0.335 µM | 0.02 µM
9 | COc1ccc2nccc(Sc3ccc(Nc4nnc(N5CCCCC5)c5ccccc45)cc3)c2n1 [compound 548] | 0.27 µM | 0.031 µM
10 | COc1ccc2nccc(Sc3ccc(Nc4nnc(-c5cc(C)cs5)c5ccccc45)cc3)c2n1 [compound 549] | 0.098 µM | 0.064 µM
11 | COc1ccc2nccc(Sc3ccc(Nc4nnc(-c5ccc(Cl)cn5)c5ccccc45)cc3)c2n1 [compound 550] | 0.107 µM | 0.022 µM
12 | COc1ccc2nccc(Oc3ccc(Nc4nnc(-c5ccc6c(c5)OCO6)c5ccccc45)cc3)c2n1 [compound 551] | 0.096 µM | 0.017 µM
13 | COc1ccc2nccc(Oc3ccc(Nc4nnc(-c5cc(C)cs5)c5ccccc45)cc3)c2n1 [compound 552] | 0.056 µM | 0.036 µM
14 | Cc1ccc(-c2nnc(Nc3ccc(Sc4ccnc5cccnc45)cc3)c3ccccc23)cn1 [compound 553] | 0.042 µM | 0.005 µM
15 | COc1ccc2nccc(Oc3ccc(Nc4nnc(-c5ccc(C)cn5)c5ccccc45)cc3)c2c1 [compound 554] | 0.172 µM | 0.011 µM
16 | COc1cnc2c(Sc3ccc(Nc4nnc(N5CCCC(C)(C)C5)c5ccccc45)cc3)ccnc2c1 [compound 555] | 0.102 µM | 0.105 µM
17 | COc1cnc2c(Sc3ccc(Nc4nnc(N5CC(C)CC(C)C5)c5ccccc45)cc3)ccnc2c1 (stereo not shown) [compound 556] | 0.116 µM | 0.159 µM
18 | COc1cnc2c(Sc3ccc(Nc4nnc(N5CCC(F)CC5)c5ccccc45)cc3)ccnc2c1 [compound 557] | 0.161 µM | 0.059 µM
19 | COc1cnc2c(Sc3ccc(Nc4nnc(C(C)C)c5ccccc45)cc3)ccnc2c1 [compound 558] | 0.378 µM | 0.041 µM

Row | SMILES | IC50 (AuroraA-TPX2) | IC50 (AuroraB)
20 | Cc1cc2nccc(Sc3ccc(Nc4nnc(-c5ccc(Cl)cc5)c5ccccc45)cc3)c2s1 [compound 559] | 0.168 µM | 0.098 µM
21 | Cc1cc2nccc(Sc3ccc(Nc4nnc(-c5ccc(Cl)cn5)c5ccccc45)cc3)c2s1 [compound 560] | 0.416 µM | 0.081 µM
22 | c1ccc(-c2nnc(Nc3ccc(Sc4ncnc5ccccc45)cc3)c3ccccc23)cc1 [compound 561] | > 25 µM | > 5 µM
23 | Clc1ccc(-c2nnc(Nc3ccc(Oc4ncnc5ccccc45)cc3)c3ccccc23)cc1 [compound 562] | 0.107 µM | 0.006 µM
24 | COc1cnc2c(Sc3ccc(Nc4nnc(N5CCN6CCC[C@H]6C5)c5ccccc45)cc3)ccnc2c1 [compound 563] | 0.023 µM | 0.009 µM
25 | COc1ccc2ncnc(Oc3ccc(Nc4nnc(-c5ccc(Cl)cc5)c5ccccc45)cc3)c2c1 [compound 564] | > 25 µM | 0.129 µM
26 | COc1ccc2ncnc(Oc3ccc(Nc4nnc(-c5cc(C)cs5)c5ccccc45)cc3)c2c1 [compound 565] | 0.686 µM | 0.108 µM
27 | COc1cnc2c(Oc3ccc(Nc4nnc(-c5ccc(Cl)cc5)c5ccccc45)cc3OC)ccnc2c1 [compound 566] | 0.093 µM | 0.043 µM
28 | COc1cnc2c(Oc3ccc(Nc4nnc(-c5cc(C)cs5)c5ccccc45)cc3OC)ccnc2c1 [compound 567] | 0.092 µM | 0.041 µM
29 | Cc1csc(-c2nnc(Nc3ccc(Oc4ncnc5ccccc45)cc3)c3ccccc23)c1 [compound 568] | 0.233 µM | 0.011 µM
30 | O=c1ccc2nccc(Oc3ccc(Nc4nnc(-c5ccc(Cl)cc5)c5ccccc45)cc3)c2[nH]1 [compound 569] | 0.128 µM | 0.013 µM
31 | Clc1ccc(-c2nnc(Nc3ccc(Sc4ccnc5c4CCCN5)cc3)c3ccccc23)cc1 [compound 570] | 0.05 µM | 0.008 µM
32 | FC(F)(F)Oc1ccc2nccc(Sc3ccc(Nc4nnc(-c5ccccc5)c5ccccc45)cc3)c2c1 [compound 571] | > 25 µM | > 25 µM
33 | Cc1csc(-c2nnc(Nc3ccc(Sc4ccnc5ccc(OC(F)(F)F)cc45)cc3)c3ccccc23)c1 [compound 572] | > 25 µM | > 25 µM
34 | COc1cc(OC)c2c(Oc3ccc(Nc4nnc(-c5cc(C)cs5)c5ccccc45)cc3)ncnc2c1 [compound 573] | 0.042 µM | 0.114 µM
35 | FC(F)(F)Oc1ccc2nccc(Oc3ccc(Nc4nnc(-c5ccc(Cl)cc5)c5ccccc45)cc3)c2c1 [compound 574] | 0.752 µM | 0.365 µM
36 | Cc1csc(-c2nnc(Nc3ccc(Oc4ccnc5ccc(OC(F)(F)F)cc45)cc3)c3ccccc23)c1 [compound 575] | 0.226 µM | 0.81 µM
37 | COc1cnc2c(Sc3ccc(Nc4nnc(N5CCn6ccnc6C5)c5ccccc45)cc3)ccnc2c1 [compound 576] | 0.077 µM | 0.026 µM
38 | c1ccc(-c2nnc(Nc3ccc(Sc4ccnc5c4CCCN5)cc3)c3ccccc23)cc1 [compound 577] | 0.428 µM | 0.021 µM

Row | SMILES | IC50 (AuroraA-TPX2) | IC50 (AuroraB)
39 | COc1cnc2c(Sc3ccc(Nc4nnc(N5CCc6sccc6C5)c5ccccc45)cc3)ccnc2c1 [compound 578] | 0.033 µM | 0.081 µM
40 | COc1cnc2c(Sc3ccc(Nc4nnc(N5CCn6ncnc6C5)c5ccccc45)cc3)ccnc2c1 [compound 579] | 0.228 µM | 0.032 µM
41 | COc1cnc2c(Sc3ccc(Nc4nnc(N5CCN6CCCC[C@@H]6C5)c5ccccc45)cc3)ccnc2c1 [compound 580] | 0.023 µM | 0.005 µM
42 | COc1cc(OC)c2c(Sc3ccc(Nc4nnc(-c5ccccc5)c5ccccc45)cc3)ncnc2c1 [compound 581] | 1.13 µM | 0.236 µM
43 | COc1cnc2c(Sc3ccc(Nc4nnc(N5CCN6CCC[C@@H]6C5)c5ccccc45)cc3)ccnc2c1 [compound 582] | 0.029 µM | 0.006 µM
44 | COc1cnc2c(Sc3ccc(Nc4nnc(-c5ccc(OC)nc5)c5ccccc45)cc3)ccnc2c1 [compound 583] | 0.028 µM | 0.008 µM
45 | COc1cnc2c(Sc3ccc(Nc4nnc(N5CCN6CCCC[C@@H]6C5)c5ccccc45)cc3)ccnc2c1 [compound 584] | 0.009 µM | 0.005 µM
46 | COc1cnc2c(Sc3ccc(Nc4nnc(N5CCN6CCCC[C@H]6C5)c5ccccc45)cc3)ccnc2c1 [compound 585] | 0.036 µM | 0.006 µM
47 | COc1cnc2c(Oc3ccc(Nc4nnc(N5CC[C@H]6CCCC[C@@H]6C5)c5ccccc45)cc3)ccnc2c1 [compound 586] | 0.124 µM | 0.042 µM
48 | COc1cnc2c(Oc3ccc(Nc4nnc(N5CC[C@@H]6CCCC[C@H]6C5)c5ccccc45)cc3)ccnc2c1 [compound 587] | 0.217 µM | 0.033 µM
49 | COc1cnc2c(Sc3ccc(Nc4nnc(-c5ccc(C)nc5)c5ccccc45)cc3)ccnc2c1 [compound 588] | 0.051 µM | 0.017 µM
50 | Cc1csc(-c2nnc(Nc3ccc(Sc4ccnc5ccc(=O)[nH]c45)cc3)c3ccccc23)c1 [compound 589] | 0.019 µM | 0.008 µM
51 | COc1cc(OC)c2c(Oc3ccc(Nc4nnc(-c5ccc(Cl)cc5)c5ccccc45)cc3)ncnc2c1 [compound 590] | 0.027 µM | 0.02 µM
52 | Clc1ccc(-c2nnc(Nc3ccc(Oc4ncnc5ccsc45)cc3)c3ccccc23)cc1 [compound 591] | 0.25 µM | 0.005 µM
53 | N#Cc1ccc2nccc(Oc3ccc(Nc4nnc(-c5ccccc5)c5ccccc45)cc3)c2c1 [compound 592] | 0.338 µM | 0.022 µM
54 | COCc1cc(-c2ccccc2)nnc1Nc1ccc(Oc2ccnc3cc(OC)cnc23)cc1 [compound 593] | 0.526 µM | 0.082 µM
55 | CCc1cc(-c2ccc3c(c2)OCO3)nnc1Nc1ccc(Oc2ccnc3cc(OC)cnc23)cc1 [compound 594] | 0.094 µM | 0.051 µM
56 | CCc1cc(-c2ccc(C)cc2)nnc1Nc1ccc(Nc2ccnc3cc(OC)cnc23)cc1 [compound 595] | 0.102 µM | 0.023 µM
